# ± gives the expanded uncertainty stated by the source.
# Key:
# [1] = mn = molality of the nth substance listed, in mol/kg; conditions: 298.15 K, 101 kPa, Liquid; for viscosity: Capillary tube (Ostwald / Ubbelohde) method; for mass density: Vibrating tube method
# [2] = cn = amount concentration of the nth substance listed, in mol/dm3; conditions: 298.15 K, 101 kPa, Liquid, Alternating current cell with electrodes
SMILES,viscosity ([1]; m1 = 0.2) [mPa·s],viscosity ([1]; m1 = 0.4) [mPa·s],viscosity ([1]; m1 = 0.6) [mPa·s],viscosity ([1]; m1 = 0.8) [mPa·s],viscosity ([1]; m1 = 1) [mPa·s],viscosity ([1]; m1 = 1.2) [mPa·s],mass density ([1]; m1 = 0.2) [kg/m3],mass density ([1]; m1 = 0.4) [kg/m3],mass density ([1]; m1 = 0.6) [kg/m3],mass density ([1]; m1 = 0.8) [kg/m3],mass density ([1]; m1 = 1) [kg/m3],mass density ([1]; m1 = 1.2) [kg/m3],other results
O=C[C@H](O)[C@@H](O)[C@H](O)CO [D-xylose] + O,0.953 ± 0.007,1.022 ± 0.007,1.096 ± 0.008,1.175 ± 0.008,1.258 ± 0.009,1.344 ± 0.009,1007.79 ± 0.06,1018.1 ± 0.09,1028.02 ± 0.13,1037.53 ± 0.16,1046.69 ± 0.19,1055.41 ± 0.22,–
CCCCCCCC[n+]1ccn(C)c1.[Cl-] [1-methyl-3-octylimidazolium chloride] + O,–,–,–,–,–,–,–,–,–,–,–,–,molar conductivity ([2]; c1 = 0.0003264): 0.0101 ± 0.0004 S·m2/mol; molar conductivity ([2]; c1 = 0.000434): 0.0101 ± 0.0004 S·m2/mol; molar conductivity ([2]; c1 = 0.0005416): 0.01 ± 0.0004 S·m2/mol; molar conductivity ([2]; c1 = 0.0006484): 0.01 ± 0.0004 S·m2/mol; molar conductivity ([2]; c1 = 0.0007536): 0.01 ± 0.0004 S·m2/mol; molar conductivity ([2]; c1 = 0.0008878): 0.00997 ± 0.0004 S·m2/mol; molar conductivity ([2]; c1 = 0.001103): 0.00995 ± 0.0004 S·m2/mol; molar conductivity ([2]; c1 = 0.001269): 0.00993 ± 0.0004 S·m2/mol; molar conductivity ([2]; c1 = 0.001538): 0.0099 ± 0.0004 S·m2/mol; molar conductivity ([2]; c1 = 0.001689): 0.00989 ± 0.0004 S·m2/mol; molar conductivity ([2]; c1 = 0.001863): 0.00987 ± 0.0004 S·m2/mol
CCCCCCn1cc[n+](C)c1.[Cl-] [1-hexyl-3-methylimidazolium chloride] + O,–,–,–,–,–,–,–,–,–,–,–,–,molar conductivity ([2]; c1 = 0.0001239): 0.0103 ± 0.00041 S·m2/mol; molar conductivity ([2]; c1 = 0.0002407): 0.0103 ± 0.00041 S·m2/mol; molar conductivity ([2]; c1 = 0.0003449): 0.0102 ± 0.00041 S·m2/mol; molar conductivity ([2]; c1 = 0.0004557): 0.0102 ± 0.00041 S·m2/mol; molar conductivity ([2]; c1 = 0.0005824): 0.0102 ± 0.00041 S·m2/mol; molar conductivity ([2]; c1 = 0.0007219): 0.0101 ± 0.0004 S·m2/mol; molar conductivity ([2]; c1 = 0.0008733): 0.0101 ± 0.0004 S·m2/mol; molar conductivity ([2]; c1 = 0.0009879): 0.0101 ± 0.0004 S·m2/mol; molar conductivity ([2]; c1 = 0.001214): 0.0101 ± 0.0004 S·m2/mol; molar conductivity ([2]; c1 = 0.001417): 0.01 ± 0.0004 S·m2/mol; molar conductivity ([2]; c1 = 0.001669): 0.01 ± 0.0004 S·m2/mol; molar conductivity ([2]; c1 = 0.001927): 0.00999 ± 0.0004 S·m2/mol
O=C[C@H](O)[C@@H](O)[C@@H](O)[C@H](O)CO [(+)-galactose] + O,0.97 ± 0.007,1.06 ± 0.007,1.16 ± 0.008,1.267 ± 0.009,1.381 ± 0.01,1.5 ± 0.011,1010.73 ± 0.07,1023.81 ± 0.11,1036.28 ± 0.16,1048.23 ± 0.2,1059.6 ± 0.2,1070.53 ± 0.27,–
CCCCCCCCCCn1cc[n+](C)c1.[Cl-] [1-decyl-3-methylimidazolium chloride] + O,–,–,–,–,–,–,–,–,–,–,–,–,molar conductivity ([2]; c1 = 0.0001226): 0.00997 ± 0.0004 S·m2/mol; molar conductivity ([2]; c1 = 0.0002378): 0.00993 ± 0.0004 S·m2/mol; molar conductivity ([2]; c1 = 0.0003622): 0.0099 ± 0.0004 S·m2/mol; molar conductivity ([2]; c1 = 0.0004428): 0.00987 ± 0.0004 S·m2/mol; molar conductivity ([2]; c1 = 0.0005678): 0.00984 ± 0.00039 S·m2/mol; molar conductivity ([2]; c1 = 0.000679): 0.00981 ± 0.00039 S·m2/mol; molar conductivity ([2]; c1 = 0.0007671): 0.0098 ± 0.00039 S·m2/mol; molar conductivity ([2]; c1 = 0.0008693): 0.00978 ± 0.00039 S·m2/mol; molar conductivity ([2]; c1 = 0.001044): 0.00975 ± 0.00039 S·m2/mol; molar conductivity ([2]; c1 = 0.001192): 0.00974 ± 0.00039 S·m2/mol; molar conductivity ([2]; c1 = 0.001374): 0.00972 ± 0.00039 S·m2/mol; molar conductivity ([2]; c1 = 0.00153): 0.0097 ± 0.00039 S·m2/mol
CCCCn1cc[n+](C)c1.[Cl-] [1-butyl-3-methylimidazolium chloride] + O,–,–,–,–,–,–,–,–,–,–,–,–,molar conductivity ([2]; c1 = 0.0004734): 0.0107 ± 0.00043 S·m2/mol; molar conductivity ([2]; c1 = 0.0006936): 0.0106 ± 0.00042 S·m2/mol; molar conductivity ([2]; c1 = 0.0008909): 0.0106 ± 0.00042 S·m2/mol; molar conductivity ([2]; c1 = 0.001113): 0.0105 ± 0.00042 S·m2/mol; molar conductivity ([2]; c1 = 0.001311): 0.0105 ± 0.00042 S·m2/mol; molar conductivity ([2]; c1 = 0.001497): 0.0105 ± 0.00042 S·m2/mol; molar conductivity ([2]; c1 = 0.00167): 0.0105 ± 0.00042 S·m2/mol; molar conductivity ([2]; c1 = 0.001839): 0.0104 ± 0.00042 S·m2/mol; molar conductivity ([2]; c1 = 0.001984): 0.0104 ± 0.00042 S·m2/mol; molar conductivity ([2]; c1 = 0.002099): 0.0104 ± 0.00042 S·m2/mol
O=C[C@H](O)[C@@H](O)[C@H](O)[C@H](O)CO [D-glucose] + O,0.974 ± 0.007,1.066 ± 0.007,1.166 ± 0.008,1.273 ± 0.009,1.385 ± 0.01,1.501 ± 0.011,1010.39 ± 0.14,1023.12 ± 0.16,1035.32 ± 0.2,1046.92 ± 0.23,1057.99 ± 0.26,1068.59 ± 0.29,–
O=C[C@H](O)[C@H](O)[C@H](O)CO [D-ribose] + O,0.949 ± 0.007,1.011 ± 0.007,1.077 ± 0.007,1.145 ± 0.008,1.215 ± 0.008,1.278 ± 0.009,1007.85 ± 0.06,1018.22 ± 0.09,1028.18 ± 0.13,1037.77 ± 0.16,1046.98 ± 0.19,1055.89 ± 0.22,–

# From the NIST ThermoML archive (doi:10.1016/j.fluid.2011.11.028)
